Laboratory results published in ChEMBL document CHEMBL1121531, “Steroidal alpha-methylene delta-lactones as potential antitumor agents” (J Med Chem, 1980).
Converted amounts (≈) assume the structure as drawn.

What was measured:
Format in all cases: cell-based
[1] = Dose that required to inhibit cell growth for cytotoxicity against human nasopharyngeal carcinoma (KB) cells in culture; conditions: read-out: LD50 (the source's name)
[2] = (§1) Dose that required to inhibit cell growth for cytotoxicity against HEp-2 cells in culture; conditions: human, HEp-2 cells; read-out: LD50 (the source's name)
[3] = tested on: HEp-2; experiment: as §1; conditions: human, hep-2

SMILES | GI50 [1] [µg/mL] | CC50 [2] [µg/mL] | LD50 [3] [µg/mL]
C=C1CC2C3CC[C@H]4CC(O)CCC4(C)C3CCC2(C)OC1=O (some centres undefined) | 1 (≈ 3.14 µM) |  | 
C=C1CC2(C)C3CCC4(C)C(O)CCC4C3CC[C@H]2OC1=O (some centres undefined) | 0.76 (≈ 2.5 µM) |  | 
C=C1CC2(C)C3CCC4(C)C(OC(C)=O)CCC4C3CC[C@H]2OC1=O (some centres undefined) | 0.72 (≈ 2.08 µM) |  | 
CC(=O)[C@H]1CC[C@H]2[C@@H]3CC[C@H]4CC(=O)CC[C@]4(C)[C@H]3CC[C@]12C |  | 0.84 (≈ 2.65 µM) | 
C=C1CC2(CCC3(C)[C@@H](CC[C@H]4[C@@H]5CCC(=O)C5(C)CC[C@@H]43)C2)OC1=O (some centres undefined) |  | 0.58 (≈ 1.63 µM) | 
C=C1CC2(C)C3CCC4(C)C(CCCCCCCC)CCC4C3CC[C@H]2OC1=O (some centres undefined) | 0.82 (≈ 2.05 µM) |  | 
C[C@]12CC[C@H]3[C@@H](CCC4=CC(=O)CC[C@@]43C)[C@@H]1CC[C@@H]2O [TESTOSTERONE] | 1.27 (≈ 4.4 µM) | 0.44 (≈ 1.53 µM) | 0.58
